Reference: US11299478B2, “2-cyanopyrimidin-4-yl carbamate or urea derivative or salt thereof, and pharmaceutical composition including same” (HANLIM PHARMACEUTICAL CO., LTD., priority 2018, dated 2022)

Key:
Assay type in all cases: biochemical
[1] = molecular target: cathepsin S (Homo sapiens, UniProt P25774); test: Inhibitory activity assay against cathepsin S (enzyme assay); details: Z-Phe-Arg-AMC 70 μM, enzyme 3 nM, pH 6.5, 45 minutes
In short: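 Ten-point compound titration (10.0 to 0.000508 μM final) reacted 45 min with 3 nM cathepsin S and 70 μM Z-Phe-Arg-AMC in MES 50 mM pH 6.5, DTT 2.5 mM, EDTA 1.0 mM, BSA 0.001%, DMSO 10%. AMC release read at 340/460 nm; IC50 from four-parameter logistic fit.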

[2] = molecular target: cathepsin B (Homo sapiens, UniProt P07858); test: Inhibitory activity assay against cathepsin B (enzyme assay); details: Z-Arg-Arg-AMC 40 μM, enzyme 1 nM, pH 6.0, 90 minutes
In short: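 Reaction run 90 min in MES buffer pH 6.0 containing DTT, EDTA, Polysorbate 20 and 10% DMSO, using 40 μM fluorogenic Z-Arg-Arg-AMC and 1 nM cathepsin B. Ten compound levels from 10.0 μM; AMC fluorescence at ex 340/em 460 nm fitted to a 4-parameter logistic for IC50.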

[3] = molecular target: T1, cathepsin K (Homo sapiens, UniProt P43235); test: Inhibitory activity assay against cathepsin K (enzyme assay); details: Z-Phe-Arg-AMC 10 μM, enzyme 1 nM, pH 5.5, 30 minutes
T1 sequence (P43235 115-329): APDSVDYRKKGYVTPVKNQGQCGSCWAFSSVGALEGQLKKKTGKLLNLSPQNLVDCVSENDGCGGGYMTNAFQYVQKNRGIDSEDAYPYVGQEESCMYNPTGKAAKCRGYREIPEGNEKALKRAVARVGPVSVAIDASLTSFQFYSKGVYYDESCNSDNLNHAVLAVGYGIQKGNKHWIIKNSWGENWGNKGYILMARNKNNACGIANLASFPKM
In short: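 IC50 by 4-parameter logistic fit of fluorescence (ex 355 nm, em 460 nm) after 30 min reaction. Compound tested at 10 final concentrations from 10.0 μM down to 0.000508 μM against 1 nM enzyme and 10 μM Z-Phe-Arg-AMC, in MES buffer pH 5.5 with DTT, EDTA, Triton X-100 and 10% DMSO.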

[4] = molecular target: cathepsin L (Homo sapiens, UniProt P07711); test: Inhibitory activity assay against cathepsin L (enzyme assay); details: Z-Phe-Arg-AMC 2 μM, enzyme 3 nM, pH 5.5, 30 minutes
In short: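 IC50s came from 4-parameter logistic fits of ten concentrations (10.0 μM down to 0.000508 μM). Reaction: 30 min, 3 nM enzyme, 2 μM Z-Phe-Arg-AMC, pH 5.5 MES buffer containing DTT, EDTA, Polysorbate 20 and 10% DMSO; fluorescence read 340/460 nm.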

Sequence of cathepsin L (P07711 114-333, species assumed): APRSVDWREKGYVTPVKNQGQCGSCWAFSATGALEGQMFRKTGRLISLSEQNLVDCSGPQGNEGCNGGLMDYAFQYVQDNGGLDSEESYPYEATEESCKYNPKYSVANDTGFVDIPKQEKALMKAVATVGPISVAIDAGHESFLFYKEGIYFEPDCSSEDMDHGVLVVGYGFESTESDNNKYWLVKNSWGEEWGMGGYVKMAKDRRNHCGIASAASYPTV
Sequence of cathepsin S (P25774 115-331, species assumed): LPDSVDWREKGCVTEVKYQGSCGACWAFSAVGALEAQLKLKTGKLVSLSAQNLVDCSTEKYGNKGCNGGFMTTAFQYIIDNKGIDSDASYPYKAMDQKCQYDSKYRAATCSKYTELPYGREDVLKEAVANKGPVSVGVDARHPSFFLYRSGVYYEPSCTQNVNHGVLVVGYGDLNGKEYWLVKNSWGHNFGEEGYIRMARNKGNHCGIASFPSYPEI

SMILES | IC50 [1] | IC50 [2] | IC50 [3] | IC50 [4]
Cc1ccc(C(F)(F)F)cc1NC(=O)NC1(c2ccnc(C#N)n2)CCCCC1 [Example 99, 1-(1-(2-cyanopyrimidin-4-yl)cyclohexyl)-3-(2-methyl-5-(trifluoromethyl)phenyl)urea] | > 10000 nM | > 10000 nM | 3.2 nM | 1100 nM
N#Cc1nccc(C2(NC(=O)Nc3ccc(Cc4ccccc4)cc3)CCCCC2)n1 [Example 100, 1-(4-benzylphenyl)-3-(1-(2-cyanopyrimidin-4-yl)cyclohexyl)urea] | > 10000 nM | > 10000 nM | 15.4 nM | > 10000 nM
N#Cc1nccc(C2(NC(=O)Nc3ccc(Nc4ccccc4)cc3)CCCCC2)n1 [Example 101, 1-(1-(2-cyanopyrimidin-4-yl)cyclohexyl)-3-(4-(phenylamino)phenyl)urea] | > 10000 nM | > 10000 nM | 21.7 nM | > 10000 nM
N#Cc1nccc(C2(NC(=O)Nc3cc(C(F)(F)F)ccc3C(F)(F)F)CCCCC2)n1 [Example 103, 1-(2,5-bis(trifluoromethyl)phenyl)-3-(1-(2-cyanopyrimidin-4-yl)cyclohexyl)urea] | > 10000 nM | > 10000 nM | 4.6 nM | > 10000 nM
N#Cc1nccc(C2(NC(=O)Nc3cc(C(F)(F)F)c(F)cc3F)CCCCC2)n1 [Example 106, 1-(1-(2-cyanopyrimidin-4-yl)cyclohexyl)-3-(2,4-difluoro-5-(trifluoromethyl)phenyl)urea] | > 10000 nM | > 10000 nM | 3.1 nM | > 10000 nM
N#Cc1nccc(C2(NC(=O)Nc3ccc(Br)cc3)CCCCC2)n1 [Example 110, 1-(4-bromophenyl)-3-(1-(2-cyanopyrimidin-4-yl)cyclohexyl)urea] | > 10000 nM | > 10000 nM | 22.9 nM | > 10000 nM
N#Cc1nccc(C2(NC(=O)Nc3cccc(-c4ccccc4)c3)CCCCC2)n1 [Example 111, 1-([1,1′-biphenyl]-3-yl)-3-(1-(2-cyanopyrimidin-4-yl)cyclohexyl)urea] | > 10000 nM | > 10000 nM | 71.5 nM | > 10000 nM
N#Cc1nccc(C2(NC(=O)Nc3ccc(-c4ccccc4)cc3)CCCCC2)n1 [Example 113, 1-([1,1′-biphenyl]-4-yl)-3-(1-(2-cyanopyrimidin-4-yl)cyclohexyl)urea] | > 10000 nM | > 10000 nM | 12.2 nM | > 10000 nM
N#Cc1nccc(C2(NC(=O)Nc3ccc(-c4ccc(C(F)(F)F)cc4)cc3)CCCCC2)n1 [Example 114, 1-(1-(2-cyanopyrimidin-4-yl)cyclohexyl)-3-(4′-(trifluoromethyl)-[1,1′-biphenyl]-4-yl)urea] | > 10000 nM | > 10000 nM | 69.7 nM | > 10000 nM
N#Cc1nccc(C2(NC(=O)Nc3ccc(-c4ccc(O)cc4)cc3)CCCCC2)n1 [Example 115, 1-(1-(2-cyanopyrimidin-4-yl)cyclohexyl)-3-(4′-hydroxy-[1,1′-biphenyl]-4-yl)urea] | > 10000 nM | > 10000 nM | 9.2 nM | > 10000 nM
CS(=O)(=O)c1ccc(-c2ccc(NC(=O)NC3(c4ccnc(C#N)n4)CCCCC3)cc2)cc1 [Example 116, 1-(1-(2-cyanopyrimidin-4-yl)cyclohexyl)-3-(4′-(methylsulfonyl)-[1,1′-biphenyl]-4-yl)urea] | > 10000 nM | > 10000 nM | 2.1 nM | > 10000 nM
N#Cc1nccc(C2(NC(=O)Nc3ccc(-c4ccc(N5CCOCC5)cc4)cc3)CCCCC2)n1 [Example 117, 1-(1-(2-cyanopyrimidin-4-yl)cyclohexyl)-3-(4′-morpholino-[1,1′-biphenyl]-4-yl)urea] | > 10000 nM | > 10000 nM | 4.1 nM | > 10000 nM
Cn1ncc2ccc(-c3ccc(NC(=O)NC4(c5ccnc(C#N)n5)CCCCC4)cc3)cc21 [Example 118, 1-(1-(2-cyanopyrimidin-4-yl)cyclohexyl)-3-(4-(1-methyl-1H-indazol-6-yl)phenyl)urea] | > 10000 nM | > 10000 nM | 16.6 nM | > 10000 nM
N#Cc1nccc(C2(NC(=O)Nc3ccc(-c4ccncc4)cc3)CCCCC2)n1 [Example 119, 1-(1-(2-cyanopyrimidin-4-yl)cyclohexyl)-3-(4-(pyridin-4-yl)phenyl)urea] | > 10000 nM | > 10000 nM | 9.6 nM | 6790 nM
Cn1cc(-c2ccc(NC(=O)NC3(c4ccnc(C#N)n4)CCCCC3)cc2)cn1 [Example 120, 1-(1-(2-cyanopyrimidin-4-yl)cyclohexyl)-3-(4-(1-methyl-1H-pyrazol-4-yl)phenyl)urea] | > 10000 nM | 9280 nM | 3.9 nM | > 10000 nM
N#Cc1nccc(C2(NC(=O)Nc3ccc(-c4ccc(F)cc4)cc3)CCCCC2)n1 [Example 121, 1-(1-(2-cyanopyrimidin-4-yl)cyclohexyl)-3-(4′-fluoro-[1,1′-biphenyl]-4-yl)urea] | > 10000 nM | > 10000 nM | 17.2 nM | > 10000 nM

The next lines start with the values.

IC50 [1] | IC50 [2] | IC50 [3] | IC50 [4] | SMILES
> 10000 nM | > 10000 nM | 18.3 nM | > 10000 nM | N#Cc1nccc(C2(NC(=O)Nc3cc(C(F)(F)F)cc(C(F)(F)F)c3)CCCCC2)n1 [Example 95, 1-(3,5-bis(trifluoromethyl)phenyl)-3-(1-(2-cyanopyrimidin-4-yl)cyclohexyl)urea]
> 10000 nM | > 10000 nM | 10.2 nM | 6500 nM | N#Cc1nccc(C2(NC(=O)Nc3ccc(F)c(C(F)(F)F)c3)CCCCC2)n1 [Example 96, 1-(1-(2-cyanopyrimidin-4-yl)cyclohexyl)-3-(4-fluoro-3-(trifluoromethyl)phenyl)urea]
> 10000 nM | > 10000 nM | 4.9 nM | > 10000 nM | N#Cc1nccc(C2(NC(=O)Nc3cc(C(F)(F)F)ccc3F)CCCCC2)n1 [Example 97, 1-(1-(2-cyanopyrimidin-4-yl)cyclohexyl)-3-(2-fluoro-5-(trifluoromethyl)phenyl)urea]
4480 nM | > 10000 nM | 61.7 nM | > 10000 nM | N#Cc1nccc(C2(NC(=O)Nc3cc(C(F)(F)F)ccc3C(=O)O)CCCCC2)n1 [Example 98, 2-(3-(1-(2-cyanopyrimidin-4-yl)cyclohexyl)ureido)-4-(trifluoromethyl)benzoic acid]
6240 nM | > 10000 nM | 63.2 nM | 3440 nM | N#Cc1nccc(C2(NC(=O)Nc3ccccc3O)CCCCC2)n1 [Example 102, 1-(1-(2-cyanopyrimidin-4-yl)cyclohexyl)-3-(2-hydroxyphenyl)urea]
3540 nM | > 10000 nM | 12.4 nM | 5590 nM | CN(C(=O)NC1(c2ccnc(C#N)n2)CCCCC1)c1ccccc1 [Example 104, 3-(1-(2-cyanopyrimidin-4-yl)cyclohexyl)-1-methyl-1-phenylurea]
3630 nM | > 10000 nM | 2.1 nM | 2980 nM | CN(C(=O)NC1(c2ccnc(C#N)n2)CCCCC1)c1ccc(F)c(C(F)(F)F)c1 [Example 105, 3-(1-(2-cyanopyrimidin-4-yl)cyclohexyl)-1-(4-fluoro-3-(trifluoromethyl)phenyl)-1-methylurea]
4750 nM | > 10000 nM | 6.8 nM | 1470 nM | COCc1ccc(C(F)(F)F)cc1NC(=O)NC1(c2ccnc(C#N)n2)CCCCC1 [Example 107, 1-(1-(2-cyanopyrimidin-4-yl)cyclohexyl)-3-(2-(methoxymethyl)-5-(trifluoromethyl)phenyl)urea]
9850 nM | > 10000 nM | 6.9 nM | 2270 nM | N#Cc1nccc(C2(NC(=O)Nc3cc(C(F)(F)F)ccc3CO)CCCCC2)n1 [Example 108, 1-(1-(2-cyanopyrimidin-4-yl)cyclohexyl)-3-(2-(hydroxymethyl)-5-(trifluoromethyl)phenyl)urea]
7620 nM | > 10000 nM | 11 nM | 1920 nM | N#Cc1nccc(C2(NC(=O)Nc3cccc(Br)c3)CCCCC2)n1 [Example 109, 1-(3-bromophenyl)-3-(1-(2-cyanopyrimidin-4-yl)cyclohexyl)urea]
